Experimental data reported in patent US10827753B2, “Compositions and methods for controlling nematodes” (Monsanto Technology LLC, priority 2007, dated 2020).
Marks after values point to notes of the source that are not given here.

How the values were obtained:
[1] = tested on: Meloidogyne incognita; assay: M. incognita miniaturized greenhouse assay on cucumber seedlings (root galling); format: in vivo; set-up: key to 1 ppm gall ratings / 1 ppm gall rating: mean of 3 gall ratings: 0=0-5%, 1=6-20%, 2=21-50%, 3=51-100% root galled; details: for 8 ppm gall ratings: average of triplicate gall rating, scale 0-3 (% root mass galled)
Protocol: The test compound is dissolved in an acetone solution and added to water. A sprouted cucumber seedling is placed into a vial with dry sand and the water-chemical solution is added immediately. Twenty four hours later Meloidogyne incognita eggs are added to the vials and 10 to 12 days later the roots are evaluated for nematode galling.
Cucumber seeds are sprouted for 3 days in moist paper towels. Acceptable sprouts should be 3 to 4 cm long with several lateral roots just emerging. Stock solutions of chemistry are prepared in a mixture of acetone and Triton X100 (412 mg in 500 mL) to a final concentration of 5 mg/mL. The chemical stock solution is then added to 10 mL deionized water plus 0.015% Triton X100 and mixed thoroughly. This is enough to test each condition in triplicate. Ten mL dry sand is added to each vial. At this time the solubility of the chemistry is visually determined and recorded as either ppt (large precipitates) or cloudy (fine precipitates). Seedlings are planted by tilting the vial and laying the seedling in the correct orientation so that the cotyledons are just above the sand and then tilting back to cover the radicles with sand. 3.3 ml water/chemical mix is added to each vial and the vials placed in racks under fluorescent light banks. The vials are inoculated two days after planting by adding 500 vermiform M. incognita eggs to each vial in 50 uL of deionized or spring water. The vials are then kept under the fluorescent lamps at ambient room temperature and watered as needed with 1 mL deionized water, usually twice during duration of test. Harvest of the cucumber plants is done 10 to 12 days after inoculation by washing sand off the roots. A root gall rating and visual phytotoxicity rating is assigned using the following scales: Gall rating scale (Gall: % root mass galled): 0=0-5%; 1=6-20%; 2=21-50%; and 3=51-100%. The average of the triplicate gall rating is then calculated: green=0.00-0.33 (no galls); yellow=0.67-1.33 (mild galling); orange=1.67-2.33 (moderate galling); red=2.67-3.00 (severe galling). Visual phytotoxicity scale is also assigned (Vis. tox; visual reduction in root mass compared to the control): rs1=mild stunting; rs2=moderate stunting; rs3=severe stunting.

[2] = tested on: Meloidogyne incognita; assay: Summer field evaluation of pre-plant incorporated compounds on squash; format: in vivo; details: 2 kg PPI, squash
Protocol: Test plots of 33 cm diameter holes were bored 41 cm deep into clay soil and filled with a mixture of 80% sand and 20% silt loam soil. Technical compound for each treatment was dissolved in 50 ml acetone containing 250 ul of Triton X-100 surfactant. This solution was added to 450 ml water and poured onto 95 liters of sand/soil mixture in a rotating drum mixer. While continuing to rotate the mixing drum 66 grams of chopped, galled, tomato roots was added and thoroughly distributed. The treated soil was sufficient to fill the top 15 cm of each of the 6 replicate plots, thus simulating a PPI treatment. The plots were then watered lightly and a mixture of M. incognita eggs and larvae were injected 5 cm deep at 5 points within the plot (100 k eggs/larvae in 10 ml per plot). Three-week old squash (cv. Liberator III) with 1 fully expanded true leaf was planted 4 days after soil treatment, one per plot.

**Q.** Which “nematicidal activity (in words, referring to table 1D)” value ([1]; 8 ppm) does the source give for c1ccc(-c2cc(-c3ccco3)n[nH]2)cc1 [3-(furan-2-yl)-5-phenyl-1H-pyrazole, reference compound] here?
**A.** The value was “nematicidal activity is seen”.

**Q.** For c1ccc(-c2nc(-c3cccs3)cs2)cc1 [compound 1787], which “1 ppm gall rating” value ([1]; Table 1D test b) is on record?
**A.** The value was 3^b (3=51-100%).

**Q.** What about the “8 ppm gall rating” value ([1]; 8 ppm, Table 1D test b) of the same molecule?
**A.** The value was 1.67^b.

**Q.** Brc1ccc(-c2nnc(-c3cccs3)o2)cc1 [compound 4948] was tested. Which “8 ppm gall ratings” value ([1]; 8 ppm) did it give?
**A.** The value was 0 (0=0-5%).

**Q.** How did the “8 ppm gall ratings” value ([1]; 8 ppm) turn out when FC(F)(F)c1ccc(-c2nnc(-c3cccs3)o2)cc1 [compound 4971] was run?
**A.** Its value is 0.67.

**Q.** Which “8 ppm gall ratings” value ([1]; 8 ppm) does the source give for Cc1ccc(-c2nnc(-c3cccs3)o2)cc1 [compound 5006] here?
**A.** Its value is 0 (0=0-5%).

**Q.** Clc1cccc(-c2nnc(-c3cccs3)o2)c1 [compound 5012] was tested. Which “8 ppm gall ratings” value ([1]; 8 ppm) did it give?
**A.** The value was 0.67.

**Q.** How did the “8 ppm gall ratings” value ([1]; 8 ppm) turn out when Clc1ccc(-c2nnc(-c3ccco3)o2)cc1 [compound 5082] was run?
**A.** Its value is 1.67.

**Q.** For Cc1ccccc1-c1nnc(-c2cccs2)o1 [compound 5090], which “8 ppm gall ratings” value ([1]; 8 ppm) is on record?
**A.** Its value is 1.67.

**Q.** Which “8 ppm gall ratings” value ([1]; 8 ppm) does the source give for FC(F)(F)c1ccc(-c2nnc(-c3ccco3)o2)cc1 [compound 5132] here?
**A.** Its value is 1.33.

**Q.** Which “8 ppm gall ratings” value ([1]; 8 ppm) does the source give for FC(F)(F)c1cccc(-c2noc(-c3ccco3)n2)c1 [compound 5181] here?
**A.** The value was 0.33.

**Q.** FC(F)(F)c1cccc(-c2noc(-c3cccs3)n2)c1 [compound 5212] was tested. Which “8 ppm gall ratings” value ([1]; 8 ppm) did it give?
**A.** The value was 1 (1=6-20%).

**Q.** For c1cncc(-c2noc(-c3ccco3)n2)c1 [compound 5292], which “8 ppm gall ratings” value ([1]; 8 ppm) is on record?
**A.** Its value is 0.67.

**Q.** Which “8 ppm gall ratings” value ([1]; 8 ppm) does the source give for c1cncc(-c2noc(-c3cccs3)n2)c1 [compound 5297] here?
**A.** The value was 0.33.

**Q.** How did the “1 ppm gall ratings” value ([1]; Table 1B test a) turn out when c1ccc(-c2noc(-c3ccco3)n2)cc1 [compound 5383] was run?
**A.** Its value is 1.33^a.

**Q.** With c1csc(-c2nnc(-c3cccc4ccccc34)o2)c1 [compound 5456] as the molecule, how does the “8 ppm gall ratings” value ([1]; 8 ppm) read?
**A.** The value was 0.67.

**Q.** For Ic1ccc(-c2noc(-c3cccs3)n2)cc1 [compound 5468], which “8 ppm gall ratings” value ([1]; 8 ppm) is on record?
**A.** Its value is 1 (1=6-20%).

**Q.** How did the “8 ppm gall ratings” value ([1]; 8 ppm) turn out when Brc1ccc(-c2nc(-c3cccs3)no2)cc1 [compound 5475] was run?
**A.** Its value is 1.33.

**Q.** Which “8 ppm gall ratings” value ([1]; 8 ppm) does the source give for Fc1ccc(-c2noc(-c3ccco3)n2)cc1 [compound 5478] here?
**A.** The value was 0 (0=0-5%).

**Q.** Clc1ccc(-c2nnc(-c3ccco3)o2)c(Cl)c1 [compound 5499] was tested. Which “1 ppm gall ratings” value ([1]; Table 1B test a) did it give?
**A.** Its value is 1^a (1=6-20%).

**Q.** What about the “8 ppm gall ratings” value ([1]; 8 ppm) of the same molecule?
**A.** Its value is 0 (0=0-5%).

**Q.** How did the “8 ppm gall ratings” value ([1]; 8 ppm) turn out when Ic1ccc(-c2noc(-c3ccco3)n2)cc1 [compound 5556] was run?
**A.** Its value is 0.33.

**Q.** c1ccc(-c2cnc(-c3ccco3)o2)cc1 [compound 5586] was tested. Which “8 ppm gall ratings” value ([1]; 8 ppm) did it give?
**A.** Its value is 0.67.

**Q.** With Brc1ccc(-c2cnc(-c3ccco3)o2)cc1 [compound 5587] as the molecule, how does the “8 ppm gall ratings” value ([1]; 8 ppm) read?
**A.** The value was 0 (0=0-5%).

**Q.** How did the “8 ppm gall ratings” value ([1]; 8 ppm) turn out when Fc1ccc(-c2cnc(-c3ccco3)o2)cc1 [compound 5618] was run?
**A.** Its value is 1.33.

**Q.** Cc1cccc(-c2noc(-c3cccs3)n2)c1 [compound 5622] was tested. Which “8 ppm gall ratings” value ([1]; 8 ppm) did it give?
**A.** The value was 0 (0=0-5%).

**Q.** For Cc1ccc(-c2noc(-c3cccs3)n2)cc1 [compound 5623], which “8 ppm gall ratings” value ([1]; 8 ppm) is on record?
**A.** The value was 0 (0=0-5%).

**Q.** Cc1cccc(-c2noc(-c3ccco3)n2)c1 [compound 5625] was tested. Which “8 ppm gall ratings” value ([1]; 8 ppm) did it give?
**A.** The value was 0.33.

**Q.** How did the “1 ppm gall rating” value ([1]; Table 1D test b) turn out when c1ccc(-c2csc(-c3cccs3)n2)cc1 [compound 5645] was run?
**A.** Its value is 2^b (2=21-50%).

**Q.** And the “8 ppm gall rating” value ([1]; 8 ppm, Table 1D test b)?
**A.** Its value is 0^b (0=0-5%).

**Q.** Which “1 ppm gall rating” value ([1]; Table 1D test b) does the source give for Brc1cccc(-c2noc(-c3cccs3)n2)c1 [compound 5663] here?
**A.** Its value is 1.67^b.

**Q.** And the “8 ppm gall rating” value ([1]; 8 ppm, Table 1D test b)?
**A.** The value was 0^b (0=0-5%).

**Q.** What about the “8 ppm gall ratings” value ([1]; 8 ppm) of the same molecule?
**A.** Its value is 0 (0=0-5%).

**Q.** Which “8 ppm gall ratings” value ([1]; 8 ppm) does the source give for Cc1ccc(-c2nnc(-c3ccco3)o2)cc1 [compound 5666] here?
**A.** Its value is 1.33.

**Q.** Which “8 ppm gall ratings” value ([1]; 8 ppm) does the source give for Brc1cccc(-c2nnc(-c3ccco3)o2)c1 [compound 5671] here?
**A.** The value was 0.67.

**Q.** With Brc1cccc(-c2noc(-c3ccco3)n2)c1 [compound 5672] as the molecule, how does the “8 ppm gall ratings” value ([1]; 8 ppm) read?
**A.** Its value is 0 (0=0-5%).

**Q.** Which results are given for c1ccc(-c2cc(-c3ccco3)n[nH]2)cc1 [compound 5725]?
**A.** 1 ppm gall rating ([1]; Table 1D test a): 3^a (3=51-100%); 8 ppm gall rating ([1]; 8 ppm, Table 1D test a): 1.33^a

**Q.** How did the “1 ppm gall rating” value ([1]; Table 1D test a) turn out when Cc1ccc(-c2noc(-c3ccco3)n2)cc1 [compound 5735] was run?
**A.** The value was 2^a (2=21-50%).

**Q.** What about the “8 ppm gall rating” value ([1]; 8 ppm, Table 1D test a) of the same molecule?
**A.** Its value is 0^a (0=0-5%).

**Q.** Which results are given for Clc1ccccc1-c1noc(-c2cccs2)n1 [compound 5738]?
**A.** 1 ppm gall rating ([1]; Table 1D test a): 1.33^a; 8 ppm gall rating ([1]; 8 ppm, Table 1D test a): 0^a (0=0-5%)

**Q.** How did the “1 ppm gall rating” value ([1]; Table 1D test a) turn out when Cc1ccccc1-c1noc(-c2cccs2)n1 [compound 5741] was run?
**A.** Its value is 1^a (1=6-20%).

**Q.** What about the “8 ppm gall rating” value ([1]; 8 ppm, Table 1D test a) of the same molecule?
**A.** The value was 0^a (0=0-5%).

**Q.** Which “1 ppm gall ratings” value ([1]; Table 1B test a) does the source give for Clc1ccc(-c2cnc(-c3cccs3)o2)cc1 [compound 5864] here?
**A.** Its value is 1^a (1=6-20%).

**Q.** With Cc1occc1-c1nc(-c2ccc(Cl)cc2)no1 [compound 5867] as the molecule, how does the “1 ppm gall rating” value ([1]; Table 1C test a) read?
**A.** The value was 1^a (1=6-20%).

**Q.** Which “1 ppm gall rating” value ([1]; Table 1C test a) does the source give for COc1ccc(-c2noc(-c3ccoc3C)n2)cc1 [compound 5869] here?
**A.** Its value is 1^a (1=6-20%).

**Q.** How did the “1 ppm gall rating” value ([1]; Table 1C test c) turn out when Cc1cc(Cl)ccc1-c1nnc(-c2ccoc2)o1 [compound 5876] was run?
**A.** The value was 1.67^c.

**Q.** How did the “1 ppm gall ratings” value ([1]; Table 1B test a) turn out when Clc1ccc(-c2noc(-c3ccoc3)n2)cc1 [compound 5882] was run?
**A.** The value was 0.67^a.

**Q.** What about the “1 ppm gall rating” value ([1]; Table 1C test c) of the same molecule?
**A.** The value was 0.67^c.

**Q.** How did the “1 ppm gall rating” value ([1]; Table 1C test a) turn out when Clc1ccc(-c2noc(-c3ccsc3)n2)cc1 [compound 5885] was run?
**A.** The value was 1^a (1=6-20%).

**Q.** Clc1ccc(-c2cnc(-c3ccsc3)o2)cc1 [compound 5886] was tested. Which “1 ppm gall rating” value ([1]; Table 1C test b) did it give?
**A.** The value was 1.33^b.

**Q.** With Clc1ccc(-c2cnc(-c3ccoc3)o2)cc1 [compound 5887] as the molecule, how does the “1 ppm gall rating” value ([1]; Table 1C test b) read?
**A.** The value was 1^b (1=6-20%).

**Q.** Which “1 ppm gall ratings” value ([1]; Table 1B test e) does the source give for Cc1cc(Cl)ccc1-c1nc(-c2ccco2)no1 [compound 5969] here?
**A.** The value was 1^e (1=6-20%).

**Q.** How did the “1 ppm gall ratings” value ([1]; Table 1B test e) turn out when Fc1cc(Cl)ccc1-c1ncc(-c2cccs2)o1 [compound 5970] was run?
**A.** The value was 1^e (1=6-20%).

**Q.** CCOP(=O)(SC(C)CC)N1CCSC1=O (centres unmarked) [fosthiazate, reference compound] was tested. Which “0-3 vigor 16 DAP” value [2] did it give?
**A.** The value was 3.0.

**Q.** What about the “0-3 vigor 21 DAP” value [2] of the same molecule?
**A.** Its value is 3.0.

**Q.** And the “feeder root (3 = ave) 31 DAP” value [2]?
**A.** The value was 2.3.

**Q.** And the “gall % 31 DAP” value [2]?
**A.** Its value is 5%.

**Q.** And the “root wgt (g) 31 DAP” value [2]?
**A.** Its value is 26.4 g.

**Q.** What about the “top wgt (lbs) 31 DAP” value [2] of the same molecule?
**A.** Its value is 2.01 lbs.

**Q.** What about the “total fruit (lbs)” value [2] of the same molecule?
**A.** The value was 1.25 lbs.
